Square brackets hold non-standard residues; d marks the D form. Ends that are not written are not given here. pY = N[C@@H](Cc1ccc(OP(=O)(O)O)cc1)C(=O)O; pS = N[C@@H](COP(=O)(O)O)C(=O)O
Assays:
[1] = tested on: CD8^+ T cells (PBMCs); test: Intracellular cytokine staining (ICS) of PBMCs after 7 days of stimulation with MHC-I-pP (healthy donors, HH patients); assay type: cell-based, human; settings: for Reactive CD8^+ T cell population, HH2: HH patient HH2; for Reactive CD8^+ T cell population, HH3: HH patient HH3; for Reactive CD8^+ T cell population, HH6: HH patient HH6; for Reactive CD8^+ T cell population, HH8: HH patient HH8; for Reactive CD8^+ T cell population, HH10: HH patient HH10; for Reactive CD8^+ T cell population, HH11: HH patient HH11; for Reactive CD8^+ T cell population, HD1: Healthy donor HD1; for Reactive CD8^+ T cell population, HD2: Healthy donor HD2; for Reactive CD8^+ T cell population, HD3: Healthy donor HD3; for Reactive CD8^+ T cell population, HD4: Healthy donor HD4; for Reactive CD8^+ T cell population, HD5: Healthy donor HD5
Procedure, shortened: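 PBMCs or liver lymphocytes from HLA-A*0201-positive healthy donors and hereditary hemochromatosis patients were stimulated for 7 days with HLA-A*0201-restricted phosphopeptides and no added cytokines. After exclusion of doublets and dead cells with a fixable viability dye, CD3^+CD8^+ cells were analysed by intracellular staining for IFN-γ and TNF-α, plus CD107a where needed.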

[2] = tested on: expanded TIL / IHL cultures; test: ICS for MHC-I-pP reactivity of liver-derived lymphocyte cultures after unspecific rapid expansion protocol (REP); assay type: cell-based, human
[3] = tested on: expanded lymphocyte cultures from deceased donor livers, cirrhotic livers and HCC; test: ICS for MHC-I-pP reactivity of liver-derived lymphocyte cultures after phosphopeptide-specific expansion; assay type: cell-based, human; settings: for ppCTL response, Deceased Donor Liver Do 2 / ppCTL response, Deceased Donor Liver Do 3 / ppCTL response, Deceased Donor Liver Do 4 / ppCTL response, Deceased Donor Liver Do 6 / ppCTL response, End-stage Liver Cirrhosis IHL 11 / ppCTL response, End-stage Liver Cirrhosis IHL 12 / ppCTL response, End-stage Liver Cirrhosis IHL 13 / ppCTL response, End-stage Liver Cirrhosis IHL 15 / ppCTL response, HCC Distal HCC 1 / ppCTL response, HCC Tumor HCC 1 / ppCTL response, HCC Distal HCC 4 / ppCTL response, HCC Distal HCC 9 / ppCTL response, HCC Tumor HCC 9 / ppCTL response, HCC Distal HCC 12: pP-specifically expanded culture; for ppCTL response, HCC Distal HCC 1: HCC 1 Distal; for ppCTL response, HCC Tumor HCC 1: HCC 1 Tumor; for ppCTL response, HCC Distal HCC 4: HCC 4 Distal; for ppCTL response, HCC Distal HCC 9: HCC 9 Distal; for ppCTL response, HCC Tumor HCC 9: HCC 9 Tumor; for ppCTL response, HCC Distal HCC 12: HCC 12 Distal
[4] = tested on: unexpanded lymphocyte cultures (CD8^+ T cells); test: ICS for MHC-I-pP reactivity of lymphocyte cultures without expansion (Table 23, No Expansion)

Substance | Reactive CD8^+ T cell population, HH2 [1] | Reactive CD8^+ T cell population, HH3 [1] | Reactive CD8^+ T cell population, HH6 [1] | Reactive CD8^+ T cell population, HH8 [1] | Reactive CD8^+ T cell population, HD1 [1] | Reactive CD8^+ T cell population, HD4 [1] | Reactive CD8^+ T cell population, HD5 [1] | Reactive CD8^+ T cells, Non-specific Expansion, Do2 [2] | Reactive CD8^+ T cells, Non-specific Expansion, Do4 [2] | Reactive CD8^+ T cells, Non-specific Expansion, HH6 [2] | Reactive CD8^+ T cells, pP-specific Expansion, Do2 [3] | Reactive CD8^+ T cells, pP-specific Expansion, Do4 [3] | Reactive CD8^+ T cells, pP-specific Expansion, HH6 [3] | ppCTL response, Deceased Donor Liver Do 2 [3] | ppCTL response, Deceased Donor Liver Do 3 [3] | ppCTL response, Deceased Donor Liver Do 4 [3] | ppCTL response, Deceased Donor Liver Do 6 [3] | ppCTL response, End-stage Liver Cirrhosis IHL 11 [3] | ppCTL response, End-stage Liver Cirrhosis IHL 12 [3] | ppCTL response, End-stage Liver Cirrhosis IHL 13 [3] | other results
SMTRsPPRV: SRSF8 phosphopeptide, HLA-A*0201 (SMTR[pS]PPRV; listed as Homo sapiens) | 0 (<0.25% reactive CD8^-+ T cells) | 0 (<0.25% reactive CD8^-+ T cells) | 0 (<0.25% reactive CD8^-+ T cells) | 0 (<0.25% reactive CD8^-+ T cells) | 0 (<0.25% reactive CD8^-+ T cells) | 0 (<0.25% reactive CD8^-+ T cells) | 0 (<0.25% reactive CD8^-+ T cells) | 0 (<0.25% reactive CD8^-+ T cells) | 0 (<0.25% reactive CD8^-+ T cells) | 0 (<0.25% reactive CD8^-+ T cells) | 0 (<0.25% reactive CD8^-+ T cells) | 0 (<0.25% reactive CD8^-+ T cells) | 0 (<0.25% reactive CD8^-+ T cells) | 1 (0.25-2.5% reactive CD8-+ T cells) | 0 (<0.25% reactive CD8-+ T cells) | 0 (<0.25% reactive CD8-+ T cells) | 0 (<0.25% reactive CD8-+ T cells) | 0 (<0.25% reactive CD8-+ T cells) | 0 (<0.25% reactive CD8-+ T cells) | 0 (<0.25% reactive CD8-+ T cells) | Reactive CD8^+ T cell population, HH10 [1]: 0 (<0.25% reactive CD8^-+ T cells); Reactive CD8^+ T cell population, HH11 [1]: 0 (<0.25% reactive CD8^-+ T cells); Reactive CD8^+ T cell population, HD2 [1]: 0 (<0.25% reactive CD8^-+ T cells); Reactive CD8^+ T cell population, HD3 [1]: 0 (<0.25% reactive CD8^-+ T cells); ppCTL response, End-stage Liver Cirrhosis IHL 15 [3]: 6 (>20% reactive CD8-+ T cells); ppCTL response, HCC Distal HCC 1 [3]: 0 (<0.25% reactive CD8-+ T cells); ppCTL response, HCC Tumor HCC 1 [3]: 0 (<0.25% reactive CD8-+ T cells); ppCTL response, HCC Distal HCC 4 [3]: 0 (<0.25% reactive CD8-+ T cells); ppCTL response, HCC Distal HCC 9 [3]: 0 (<0.25% reactive CD8-+ T cells); ppCTL response, HCC Tumor HCC 9 [3]: 0 (<0.25% reactive CD8-+ T cells); ppCTL response, HCC Distal HCC 12 [3]: 0 (<0.25% reactive CD8-+ T cells); Reactive CD8^+ T cells, No Expansion, Do4 [4]: 4 (7.5-10% reactive CD8^-+ T cells); Reactive CD8^+ T cells, No Expansion, HH6 [4]: 0 (<0.25% reactive CD8^-+ T cells)
VMIGsPKKV: TNS3 phosphopeptide, HLA-A*0201 (VMIG[pS]PKKV; listed as Homo sapiens) | 0 (<0.25% reactive CD8^-+ T cells) | 0 (<0.25% reactive CD8^-+ T cells) | 0 (<0.25% reactive CD8^-+ T cells) | 0 (<0.25% reactive CD8^-+ T cells) | 0 (<0.25% reactive CD8^-+ T cells) | 0 (<0.25% reactive CD8^-+ T cells) | 0 (<0.25% reactive CD8^-+ T cells) | 0 (<0.25% reactive CD8^-+ T cells) | 0 (<0.25% reactive CD8^-+ T cells) | 0 (<0.25% reactive CD8^-+ T cells) | 1 (0.25-2.5% reactive CD8^-+ T cells) | 0 (<0.25% reactive CD8^-+ T cells) | 0 (<0.25% reactive CD8^-+ T cells) | 2 (2.5-5.0% reactive CD8-+ T cells) | 0 (<0.25% reactive CD8-+ T cells) | 0 (<0.25% reactive CD8-+ T cells) | 0 (<0.25% reactive CD8-+ T cells) | 0 (<0.25% reactive CD8-+ T cells) | 0 (<0.25% reactive CD8-+ T cells) | 0 (<0.25% reactive CD8-+ T cells) | Reactive CD8^+ T cell population, HH10 [1]: 1 (0.25-2.5% reactive CD8^-+ T cells); Reactive CD8^+ T cell population, HH11 [1]: 0 (<0.25% reactive CD8^-+ T cells); Reactive CD8^+ T cell population, HD2 [1]: 0 (<0.25% reactive CD8^-+ T cells); Reactive CD8^+ T cell population, HD3 [1]: 0 (<0.25% reactive CD8^-+ T cells); ppCTL response, End-stage Liver Cirrhosis IHL 15 [3]: 0 (<0.25% reactive CD8-+ T cells); ppCTL response, HCC Distal HCC 1 [3]: 0 (<0.25% reactive CD8-+ T cells); ppCTL response, HCC Tumor HCC 1 [3]: 0 (<0.25% reactive CD8-+ T cells); ppCTL response, HCC Distal HCC 4 [3]: 0 (<0.25% reactive CD8-+ T cells); ppCTL response, HCC Distal HCC 9 [3]: 0 (<0.25% reactive CD8-+ T cells); ppCTL response, HCC Tumor HCC 9 [3]: 0 (<0.25% reactive CD8-+ T cells); ppCTL response, HCC Distal HCC 12 [3]: 0 (<0.25% reactive CD8-+ T cells); Reactive CD8^+ T cells, No Expansion, Do4 [4]: 0 (<0.25% reactive CD8^-+ T cells); Reactive CD8^+ T cells, No Expansion, HH6 [4]: 0 (<0.25% reactive CD8^-+ T cells)
yLQSRYYRA: HIPK3 phosphopeptide, HLA-A*0201 ([pY]LQSRYYRA; listed as Homo sapiens) | 0 (<0.25% reactive CD8^-+ T cells) | 0 (<0.25% reactive CD8^-+ T cells) | 1 (0.25-2.5% reactive CD8^-+ T cells) | 0 (<0.25% reactive CD8^-+ T cells) | 0 (<0.25% reactive CD8^-+ T cells) | 0 (<0.25% reactive CD8^-+ T cells) | 0 (<0.25% reactive CD8^-+ T cells) | 0 (<0.25% reactive CD8^-+ T cells) | 0 (<0.25% reactive CD8^-+ T cells) | 0 (<0.25% reactive CD8^-+ T cells) | 2 (2.5-5.0% reactive CD8^-+ T cells) | 0 (<0.25% reactive CD8^-+ T cells) | 0 (<0.25% reactive CD8^-+ T cells) | 2 (2.5-5.0% reactive CD8-+ T cells) | 0 (<0.25% reactive CD8-+ T cells) | 0 (<0.25% reactive CD8-+ T cells) | 0 (<0.25% reactive CD8-+ T cells) | 0 (<0.25% reactive CD8-+ T cells) | 0 (<0.25% reactive CD8-+ T cells) | 0 (<0.25% reactive CD8-+ T cells) | ppCTL response, End-stage Liver Cirrhosis IHL 15 [3]: 0 (<0.25% reactive CD8-+ T cells); ppCTL response, HCC Distal HCC 1 [3]: 0 (<0.25% reactive CD8-+ T cells); ppCTL response, HCC Tumor HCC 1 [3]: 0 (<0.25% reactive CD8-+ T cells); ppCTL response, HCC Distal HCC 4 [3]: 0 (<0.25% reactive CD8-+ T cells); ppCTL response, HCC Distal HCC 9 [3]: 0 (<0.25% reactive CD8-+ T cells); ppCTL response, HCC Tumor HCC 9 [3]: 1 (0.25-2.5% reactive CD8-+ T cells); ppCTL response, HCC Distal HCC 12 [3]: 0 (<0.25% reactive CD8-+ T cells); Reactive CD8^+ T cells, No Expansion, HH6 [4]: 1 (0.25-2.5% reactive CD8^-+ T cells)

— patent US20190374627A1, “TARGET PEPTIDES FOR CANCER THERAPY AND DIAGNOSTICS” (priority 2016, published 2019)
